Source: article PMC8178536 (Journal of Ethnopharmacology, 2021)
Like-named read-outs stand apart in the source and are kept apart here.

Assays:
[1] = molecular target: ACE2-RBD interaction (human ACE2 / SARS-CoV-2 S protein RBD) (Severe acute respiratory syndrome coronavirus 2, UniProt P0DTC2); assay: biochemical; type: binding, human; SARS-CoV-2
[2] = system: SARS-CoV-2 S protein-pseudoviruses, 293T-ACE2 cells; assay: microbe, parasite or virus in culture; type: cell-based
SARS-CoV-2 RBD = SARS-CoV-2 RBD (Severe acute respiratory syndrome coronavirus 2, UniProt P0DTC2); assay: biochemical; type: binding
[3] = system: SARS-CoV-2 S protein-pseudoviruses, Calu-3 cells; type: cell-based
ACE2 = ACE2 (Homo sapiens, UniProt Q9BYF1); type: binding; details: SPR, two-fold serial dilutions
Sequence of ACE2 (Q9BYF1 18-740): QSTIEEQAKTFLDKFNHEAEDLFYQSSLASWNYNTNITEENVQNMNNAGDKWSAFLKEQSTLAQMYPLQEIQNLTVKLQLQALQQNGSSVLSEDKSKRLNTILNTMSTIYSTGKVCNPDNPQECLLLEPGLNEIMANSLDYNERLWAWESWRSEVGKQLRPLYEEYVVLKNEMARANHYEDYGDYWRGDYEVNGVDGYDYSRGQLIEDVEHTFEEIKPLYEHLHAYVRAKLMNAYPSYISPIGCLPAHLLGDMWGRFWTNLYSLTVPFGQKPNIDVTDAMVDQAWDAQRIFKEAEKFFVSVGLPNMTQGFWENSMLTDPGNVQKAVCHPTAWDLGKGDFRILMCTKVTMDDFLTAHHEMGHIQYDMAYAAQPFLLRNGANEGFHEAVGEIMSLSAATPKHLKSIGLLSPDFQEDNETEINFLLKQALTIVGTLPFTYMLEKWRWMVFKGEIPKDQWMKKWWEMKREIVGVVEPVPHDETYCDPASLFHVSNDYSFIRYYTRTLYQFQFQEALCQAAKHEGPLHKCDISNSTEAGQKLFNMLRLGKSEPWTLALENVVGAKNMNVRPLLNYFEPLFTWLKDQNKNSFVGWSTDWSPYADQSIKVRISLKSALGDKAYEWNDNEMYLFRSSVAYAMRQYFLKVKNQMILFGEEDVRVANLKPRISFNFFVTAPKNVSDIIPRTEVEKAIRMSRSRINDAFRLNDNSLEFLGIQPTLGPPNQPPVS

[4] = Severe acute respiratory syndrome coronavirus 2, 293T/ACE2, read-out: IC50, infectivity of S protein-pseudoviruses to 293T-ACE2 cells

Row | Compound | IC50 [1] | IC50 [2, 4] | Kd (SARS-CoV-2 RBD) | infectivity of SARS-CoV-2 S protein-pseudoviruses to Calu-3 cells [3] | binding to immobilized ACE2 (ACE2) | IC50 ([2]; read-out: IC50, entry of S protein-pseudoviruses into 293T-ACE2 cells)
1 | O=C(O)c1cc(O)c2cc(O)ccc2n1 [Compound 1, 4,6-dihydroxyquinoline-2-carboxylic acid] | 580 nM | 1090 nM | 0.6 µM |  |  | 
2 | O=C(O)c1cc(O)c2ccccc2n1 [Compound 2, 4-hydroxyquinoline-2-carboxylic acid] | 70 nM | 440 nM | 5.28 µM | abolished the infectivity | low or no binding | 
3 | COc1ccc2nc(C(=O)O)cc(O)c2c1 [Compound 3, 4-hydroxy-6-methoxyquinoline-2-carboxylic acid] | 150 nM | 750 nM | 5.37 µM |  |  | 
4 | soluble recombinant human ACE2 |  |  |  |  |  | 69.6 nM
